Like-named read-outs stand apart in the source and are kept apart here.
Tests used:
[1] = biological target: NmSiaDW α1-4-galactosyltransferase activity (Neisseria meningitidis, UniProt O33390); format: biochemical; details: apparent; varying UDP-Gal, fixed acceptor 2 mM (row names the acceptor)
[2] = system: α2-6-sialyltransferase activity of NmSiaDW; format: biochemical, Neisseria meningitidis
[3] = biological target: NmSiaDW α2-6-sialyltransferase activity (Neisseria meningitidis, UniProt O33390); experiment: Enzyme kinetics by varying CMP-Neu5Ac concentrations, fixed acceptor G2 or G10; format: biochemical; details: apparent, fixed acceptor 1 mM (row names the acceptor)
Method: Enzyme kinetics by varying donor concentrations. For varying UDP-Gal concentrations, reactions were performed in duplicate at 30° C. for 10 minutes in the presence of MES buffer (100 mM, pH 6.5), MgCl2 (10 mM), S3 or S9 (2 mM), UDP-Gal (0.1, 0.2, 0.5, 1.0, 2.0, 5.0 and 10.0 mM), and NmSiaDW (0.025 μM for S3, 0.031 μM for S9) in a total volume of 20 μL. For varying CMP-Neu5Ac concentrations, reactions were performed in duplicate at 30° C. for 10 minutes in the presence of Tris-HCl buffer (100 mM, pH 8.0), MgCl2 (10 mM), G2 or G10 (1 mM), CMP-Neu5Ac (0.2, 0.5, 1.0, 2.0, 5.0 and 10.0 mM), and NmSiaDW (0.025 μM for G2, 0.062 μM for G10) in a total volume of 20 μL. Data analyses were carried out as described above.
NmSiaDW kinetics studies where the concentrations of the donors were also conducted, using a fixed concentration of a representative short or long acceptor substrate. S3 or S9 was used as the acceptor substrate for varying the concentration of UDP-Gal and G2 or G10 was used as the acceptor substrate for varying the concentration of CMP-Neu5Ac. […] The averages of nonlinear regression standard errors from technical duplicates are shown.

[4] = biological target: NmSiaDW sialyltransferase activity (Neisseria meningitidis, UniProt O33390); details: apparent; varying acceptor, 10 mM CMP-Neu5Ac, pH 8.0, 30° C.
[5] = biological target: NmSiaDW galactosyltransferase activity (Neisseria meningitidis, UniProt O33390); details: for increase of overall catalytic efficiency (kcat/KM) relative to monosaccharide S1: monosaccharide to nonasaccharide
NmSiaDW [6] = experiment: Temperature profile of NmSiaDW activities; format: biochemical, Neisseria meningitidis
Method: Assays were carried out in duplicate at different temperatures for 20 min in a total volume of 10 μL in a buffer (MES, 100 mM, pH 6.5 for GalT and Tris-HCl, 100 mM, pH 8.0 for SiaT assays) containing a donor substrate (1.2 mM) (UDP-Gal for GalT and CMP-Neu5Ac for SiaT assays), an acceptor substrate (1 mM) (S1 for GalT and G2 for SiaT assays), MgCl2 (10 mM), and NmSiaDW (19.8 μg for GalT and 0.17 μg for SiaT assays). Reactions were quenched by adding 10 μL of pre-chilled ethanol to the reaction mixture followed by incubation at −20° C. for 30 min. Products were assayed as described above for pH profile studies.

NmSiaDW [7] = experiment: Thermostability of NmSiaDW (pre-heated 30 min, then activity assay at 30° C.); format: biochemical, Neisseria meningitidis
Method: Enzyme was pre-heated at a given temperature for 30 min, then put on ice for 10 min. Reactions were performed at 30° C. and activity assays were then carried out as described above for the temperature profile assays.

[8] = apparent, varying acceptor, 2 mM UDP-Gal, pH 6.5, 30° C.
[9] = α1-4-galactosyltransferase activity

**Q.** How did the kcat [1] turn out when `CC(=O)N[C@H]1[C@H]([C@H](O)[C@H](O)CO)O[C@@](OCCCNC(=O)OCc2ccccc2)(C(=O)O)C[C@@H]1O[C@H]1O[C@H](CO[C@]2(C(=O)O)C[C@H](O)[C@@H](NC(C)=O)[C@H]([C@H](O)[C@H](O)CO)O2)[C@H](O)[C@H](O)[C@H]1O` [S3, Neu5Acα2-6Galα1-4Neu5AcαProNHCbz] was run?
**A.** 6.3 ± 0.2 s⁻¹

**Q.** With `CO[C@H]1O[C@H](CO)[C@H](O)[C@H](O)[C@H]1O` [GalαOMe] as the molecule, how does the Product [2] read?
**A.** Not Detected

**Q.** Which results are given for `CC(=O)N[C@H]1[C@H]([C@H](O)[C@H](O)CO)O[C@@](OC[C@H]2O[C@H](O[C@H]3C[C@](OC[C@H]4O[C@H](O[C@H]5C[C@](OC[C@H]6O[C@H](O[C@H]7C[C@](OC[C@H]8O[C@H](O[C@H]9C[C@](OCCCNC(=O)OCc%10ccccc%10)(C(=O)O)O[C@@H]([C@H](O)[C@H](O)CO)[C@@H]9NC(C)=O)[C@H](O)[C@@H](O)[C@H]8O)(C(=O)O)O[C@@H]([C@H](O)[C@H](O)CO)[C@@H]7NC(C)=O)[C@H](O)[C@@H](O)[C@H]6O)(C(=O)O)O[C@@H]([C@H](O)[C@H](O)CO)[C@@H]5NC(C)=O)[C@H](O)[C@@H](O)[C@H]4O)(C(=O)O)O[C@@H]([C@H](O)[C@H](O)CO)[C@@H]3NC(C)=O)[C@H](O)[C@@H](O)[C@H]2O)(C(=O)O)C[C@@H]1O[C@H]1O[C@H](CO)[C@H](O)[C@H](O)[C@H]1O` [G10, Galα1(-4Neu5Acα2-6Galα1)4-4Neu5AcαProNHCbz]?
**A.** kcat [3]: 6.1 ± 0.2 s⁻¹; kcat [4]: 7.03 ± 0.39 s⁻¹

**Q.** `CC(=O)N[C@H]1[C@H]([C@H](O)[C@H](O)CO)O[C@@](OCCCNC(=O)OCc2ccccc2)(C(=O)O)C[C@@H]1O[C@H]1O[C@H](CO)[C@H](O)[C@H](O)[C@H]1O` [G2, Galα1-4Neu5AcαProNHCbz] was tested. Which kcat [3] did it give?
**A.** 7.1 ± 0.2 s⁻¹

**Q.** `CC(=O)N[C@H]1[C@H]([C@H](O)[C@H](O)CO)O[C@@](OCCCNC(=O)OCc2ccccc2)(C(=O)O)C[C@@H]1O[C@H]1O[C@H](CO[C@]2(C(=O)O)C[C@H](O[C@H]3O[C@H](CO[C@]4(C(=O)O)C[C@H](O[C@H]5O[C@H](CO[C@]6(C(=O)O)C[C@H](O[C@H]7O[C@H](CO[C@]8(C(=O)O)C[C@H](O)[C@@H](NC(C)=O)[C@H]([C@H](O)[C@H](O)CO)O8)[C@H](O)[C@H](O)[C@H]7O)[C@@H](NC(C)=O)[C@H]([C@H](O)[C@H](O)CO)O6)[C@H](O)[C@H](O)[C@H]5O)[C@@H](NC(C)=O)[C@H]([C@H](O)[C@H](O)CO)O4)[C@H](O)[C@H](O)[C@H]3O)[C@@H](NC(C)=O)[C@H]([C@H](O)[C@H](O)CO)O2)[C@H](O)[C@H](O)[C@H]1O` [S9, Neu5Acα2(-6Galα1-4Neu5Acα2)4-ProNHCbz] was tested. Which kcat [1] did it give?
**A.** 9.0 ± 0.2 s⁻¹

**Q.** And the Km [5, 8]?
**A.** < 50 µM

**Q.** What about the kcat [5, 8] of the same molecule?
**A.** 5.1 ± 0.3 s⁻¹

**Q.** What about the “acceptor concentration above which substrate inhibition was observed” value ([5]; galactosyltransferase activity, 2 mM UDP-Gal) of the same molecule?
**A.** higher than 2 mM

**Q.** What about the “increase of overall catalytic efficiency (kcat/KM) relative to monosaccharide S1” value ([5]; galactosyltransferase activity) of the same molecule?
**A.** more than 2100 fold

**Q.** What about the “increase of overall catalytic efficiency (kcat/KM) relative to monosaccharide S1” value ([5]; galactosyltransferase activity, listed as nonasaccharide) of the same molecule?
**A.** More than 2300 fold

**Q.** With `OC[C@H]1O[C@@H](O[C@H]2[C@H](O)[C@@H](O)C(O)O[C@@H]2CO)[C@H](O)[C@@H](O)[C@H]1O` (some centres unmarked) [Galβ1-4Glc] as the molecule, how does the Product [2] read?
**A.** √

B1: NmSiaDW: recombinant C-terminal His-tagged N. meningitidis serogroup W capsular polysaccharide synthase, SEQ ID NO:2 (protein)
chain: MAVIIFVNGIRAVNGLVKSSINTANAFAEEGLDVHLINFVGNITGAEHLYPPFHLHPNVKTSSIIDLFNDIPENVSCRNTPFYSIHQQFFKAEYSAHYKHVLMKIESLLSAEDSIIFTHPLQLEMYRLANNDIKSKAKLIVQIHGNYMEEIHNYEILARNIDYVDYLQTVSDEMLEEMHSHFKIKKDKLVFIPNITYPISLEKKEADFFIKDNEDIDNAQKFKRISIVGSIQPRKNQLDAIKIINKIKNENYILQIYGKSINKDYFELIKKYIKDNKLQNRILFKGESSEQEIYENTDILIMTSESEGFPYIFMEGMVYDIPIVVYDFKYGANDYSNYNENGCVFKTGDISGMAKKIIELLNNPEKYKELVQYNHNRFLKEYAKDVVMAKYFTILPRSFNNVSLSSAFSRKELDEFQNITFSIEDSNDLAHIWNFELTNPAQNMNFFALVGKRKFPMDAHIQGTQCTIKIAHKKTGNLLSLLLKKRNQLNLSRGYTLIAEDNSYEKYIGAISNKGNFEIIANKKSSLVTINKSTLELHEIPHELHQNKLLIALPNMQTPLKITDDNLIPIQASIKLEKIGNTYYPCFLPSGIFNNICLDYGEESKIINFSKYSYKYIYDSIRHIEQHTDISDIIVCNVYSWELIRASVIESLMEFTGKWEKHFQTSPKIDYRFDHEGKRSMDDVFSEETFIMEFPRKNGIDKKTAAFQNIPNSIVMEYPQTNGYSMRSHSLKSNVVAAKHFLEKLNKIKVDIKFKKHDLANIKKMNRIIYEHLGININIEAFLKPRLEKFKREEKYFHDFFKRNNFKEVIFPSTYWNPGIICAAHKQGIKVSDIQYAAITPYHPAYFKSPKSHYVADKLFLWSEYWNHELLPNPTREIGSGAAYWYALDDVRFSEKLNYDYIFLSQSRISSRLLSFAIEFALKNPQLQLLFSKHPDENIDLKNRIIPDNLIISTESSIQGINESRVAVGVYSTSLFEALACGKQTFVVKYPGYEIMSNEIDSGLFFAVETPEEMLEKTSPNWVAVADIENQFFGQEK
**Q.** B1 was tested. Which optimal temperature (NmSiaDW [6]; sialyltransferase activity) did it give?
**A.** 30-37 °C

**Q.** And the optimal temperature (NmSiaDW [6]; [9])?
**A.** 20-33 °C

**Q.** What about the “incubation temperature at which both glycosyltransferase activities were lost (30 minutes)” value (NmSiaDW [7]; both activities) of the same molecule?
**A.** 44 °C

**Q.** What about the “temperature up to which activity is retained after 30 minutes incubation” value (NmSiaDW [7]; [9]) of the same molecule?
**A.** up to 33 °C

**Q.** And the “incubation temperature above which activity decreased significantly (30 minutes)” value (NmSiaDW [7]; α2-6-sialyltransferase activity)?
**A.** higher than 30 °C

— patent US20220145343A1 (priority 2019, published 2022)
